Literature values in patent EP1147767A1 (J.B. Chemicals & Pharmaceuticals Ltd., priority 2000, dated 2001).

Tests used:
[1] = 200mg 3 times daily, rectally; Ramella et al. 1993
[2] = animal model; comparison with other NSAIDs
[3] = 200 mg/day; respiratory tract infections, ENT disorders, dysmenorrhoea, dental surgery, urogenital tract disorders, musculoskeletal injuries
[4] = 200 mg twice daily; Pierleoni et al. 1993
[5] = rats; comparison with other drugs
[6] = 200 mg twice daily, granular formulation; versus naproxen 500 mg twice daily; Toscani et al. 1993
[7] = 200 mg twice daily, rectally; Coscarelli et al. 1993

Structure (SMILES): CS(=O)(=O)Nc1ccc([N+](=O)[O-])cc1Oc1ccccc1 [Nimesulide, 4'-Nitro-2'-phenoxymethanesulphonanilide]
- adverse reaction [1]: no adverse reaction
- pain, oedema, hyperaemia and fever [1]: significantly less pain, oedema and hyperaemia and resolution of mild fever
- ulcerogenic [2]: less ulcerogenic than aspirin, indomethacin, naproxen, piroxicam and ibuprofen
- reducing clinical symptoms [3]: generally more effective than the usual therapeutic doses of naproxen, ibuprofen, ketoprofen mefenamic acid and suprofen
- relief [4]: gave relief
- antipyretic potency [5]: superior antipyretic potency to indomethacin, ibuprofen, aspirin and paracetamol
- analgesic efficacy (pain) [6]: similarly reduced pain with naproxen 500 mg twice daily
- relief of pain [7]: gave relief in the pain associated with postoperative inflammatory complications of ear, nose and throat surgery
